{"source": "patent US8546404B2", "about": "“Compounds that are ERK inhibitors” (Merck Sharp & Dohme, priority 2005, dated 2013)", "note": "Where “and” joins values, the source holds several entries; their conditions need not be identical. Equal values may be shown once."}
{"target": "fully phosphorylated, active Mouse ERK2 protein (Mus musculus (Mouse), UniProt P63085)", "sequence (P63085 whole entry)": "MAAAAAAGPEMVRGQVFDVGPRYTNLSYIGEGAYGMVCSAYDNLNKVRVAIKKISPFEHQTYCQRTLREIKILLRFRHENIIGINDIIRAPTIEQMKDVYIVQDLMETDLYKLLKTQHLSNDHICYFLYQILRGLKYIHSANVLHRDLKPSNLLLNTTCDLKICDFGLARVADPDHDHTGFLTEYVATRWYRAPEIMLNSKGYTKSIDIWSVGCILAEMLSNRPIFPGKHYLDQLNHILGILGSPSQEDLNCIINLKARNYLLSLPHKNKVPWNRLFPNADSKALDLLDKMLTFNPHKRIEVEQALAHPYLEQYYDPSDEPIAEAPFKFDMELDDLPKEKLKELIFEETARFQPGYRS", "test": "Active ERK2 Assay (IMAP format)", "assay_type": "biochemical", "conditions": "AERK2 IC50", "method": "(§1) Activated ERK2 activity was also determined in the IMAP assay format using the procedure outlined above. […] Reactions proceeded for 30 minutes before termination by addition of 60 μl IMAP detection beads in binding buffer. Plates were read as above after 30 minute binding equilibration.", "units": {"IC50": "nM"}}
{"smiles": "O=C(Nc1ccc2[nH]nc(-c3ccncc3)c2c1)[C@@H]1CCN(CC(=O)N2CCN(c3ccc(-c4ncccn4)cc3)CC2)C1", "note": "[Example 6]", "IC50": 0.8}
{"target": "fully phosphorylated, active Mouse ERK2 protein (Mus musculus (Mouse), UniProt P63085)", "test": "Active ERK2 Assay (IMAP format)", "assay_type": "biochemical", "conditions": "read-out: AERK2 IC50", "method": "as §1"}
{"smiles": "CO[C@@]1(C(=O)Nc2ccc3[nH]nc(-c4ccc(F)cc4)c3c2)CCN(CC(=O)N2CCN(c3cc(F)c(-c4ncccn4)cc3F)CC2)C1", "note": "[Example 663]", "IC50": "0.16 to 18 nM"}
{"smiles": "CCOC1(C(=O)Nc2ccc3[nH]nc(-c4ccnc(C)c4)c3c2)CCN(CC(=O)N2CCN(c3ccc(-c4ncccn4)cc3)CC2)C1", "note": "(stereo not shown) [Example 343]", "IC50": "0.16 to 18 nM"}
{"smiles": "COCCOc1ccc(-c2n[nH]c3ccc(NC(=O)[C@]4(OC)CCN(CC(=O)N5CC=C(c6ncc(-c7ncccn7)cc6F)CC5)C4)cc23)cc1", "note": "[Example 738]", "IC50": "0.16 to 18 nM"}
{"smiles": "C=CCC1(C(=O)Nc2ccc3[nH]nc(-c4ccncc4)c3c2)CCN(CC(=O)N2C[C@@H]3C[C@H]2CN3c2ccc(-c3ncc(F)cn3)cc2)C1", "note": "(stereo partly shown) [Example 271]", "IC50": "0.16 to 18 nM"}
{"smiles": "O=C(Nc1ccc2[nH]nc(-c3ccc(F)cc3)c2c1)C1CCN(CC(=O)N2CCN(c3ccc(-c4ncccn4)cn3)CC2)C1", "note": "(stereo not shown) [Example 98]", "IC50": "0.16 to 18 nM"}
{"smiles": "O=C(Nc1ccc2[nH]nc(-c3ccc(F)cc3)c2c1)[C@@H]1CCN(CC(=O)N2C[C@@H]3C[C@H]2CN3c2ccc(-c3ncccn3)cc2)C1", "note": "[Example 184]", "IC50": "0.16 to 18 nM and 0.16 to 1.5 nM"}
{"smiles": "CNC(=O)c1n[nH]c2ccc(NC(=O)[C@@H]3CCN(CC(=O)N4C[C@@H]5C[C@H]4CN5c4ccc(-c5ncc(C)cn5)cc4)C3)cc12", "note": "[Example 154]", "IC50": "0.16 to 18 nM"}
{"smiles": "CSC1(C(=O)Nc2ccc3[nH]nc(-c4ccc(F)cc4)c3c2)CCN(CC(=O)N2CCN(c3ccc(-c4ncccn4)cc3)CC2)C1", "note": "(stereo not shown) [Example 338]", "IC50": "0.16 to 18 nM"}
{"smiles": "CO[C@@]1(C(=O)Nc2ccc3[nH]nc(-c4ccc(F)c(CO)c4)c3c2)CCN(CC(=O)N2CC=C(c3ccc(-c4ncccn4)cc3)CC2)C1", "note": "[Example 787]", "IC50": "0.16 to 1.5 nM"}
{"smiles": "CO[C@@]1(C(=O)Nc2ccc3[nH]nc(C4CCOCC4)c3c2)CCN(CC(=O)N2CC=C(c3ccc(-c4ncccn4)cc3)CC2)C1", "note": "[Example 779]", "IC50": "0.16 to 18 nM"}
{"smiles": "COCC1(C(=O)Nc2ccc3[nH]nc(-c4ccncc4)c3c2)CCN(CC(=O)N2CCN(c3ccc(-c4ncc(F)cn4)cc3)CC2)C1", "note": "(stereo not shown) [Example 302]", "IC50": "0.16 to 18 nM"}
{"smiles": "COCCOc1ccc(-c2n[nH]c3ccc(NC(=O)[C@]4(OC)CCN(CC(=O)N5CC=C(c6ccc(-c7ncccn7)cc6F)CC5)C4)cc23)cc1", "note": "[Example 767]", "IC50": "0.16 to 18 nM"}
{"smiles": "O=C(Nc1ccc2[nH]nc(-c3ccncc3)c2c1)[C@@H]1CCN(CC(=O)N2CCc3ccccc3C2)C1", "note": "[Example 332]", "IC50": "0.16 to 18 nM"}
{"smiles": "CO[C@@]1(C(=O)Nc2ccc3[nH]nc(-c4cc[n+]([O-])c(C)c4)c3c2)CCN(CC(=O)N2CC=C(c3ccc(-c4ncccn4)cc3)CC2)C1", "note": "[Example 666]", "IC50": "0.16 to 18 nM"}
{"smiles": "CS[C@@]1(C(=O)Nc2ccc3[nH]nc(-c4ccc(F)cc4)c3c2)CCN(CC(=O)N2CCN(c3ccc(-c4ncccn4)cn3)C[C@H]2C)C1", "note": "[Example 641]", "IC50": "0.16 to 18 nM"}
{"smiles": "N#Cc1cccc(-c2n[nH]c3ccc(NC(=O)[C@@H]4CCN(CC(=O)N5CCN(c6ccc(-c7ncccn7)cc6)CC5)C4)cc23)c1", "note": "[Example 2, 1-{2-Oxo-2-[4-(4-pyrimidin-2-yl-phenyl)-piperazin-1-yl]-ethyl}-pyrrolidine-3-carboxylic acid[3-(3-cyano-phenyl)-1H-indazol-5-yl]-amide]", "IC50": "0.16 to 18 nM"}
{"smiles": "CO[C@@]1(C(=O)Nc2ccc3[nH]nc(-c4ccnc(C(F)F)c4)c3c2)CCN(CC(=O)N2CCC(c3ccc(-c4ncccn4)cc3)CC2)C1", "note": "[Example 786]", "IC50": "0.16 to 18 nM"}
{"smiles": "C#CCC1(C(=O)Nc2ccc3[nH]nc(-c4ccncc4)c3c2)CCN(CC(=O)N2CCN(c3ccc(-c4ncccn4)cc3)CC2)C1", "note": "(stereo not shown) [Example 292]", "IC50": "0.16 to 18 nM"}
{"smiles": "CNC(=O)c1n[nH]c2ccc(NC(=O)C3CCN(CC(=O)N4CCC(C#Cc5ncccn5)CC4)C3)cc12", "note": "(stereo not shown) [Example 142, 5-({1-[2-oxo-2-(4-pyrimidin-2-ylethynyl-piperidin-1-yl)-ethyl]-pyrrolidine-3-carbonyl}-amino)-1H-indazole-3-carboxylic acid methylamide]", "IC50": "0.16 to 18 nM"}
{"smiles": "CO[C@@]1(C(=O)Nc2ccc3[nH]nc(-c4ccnc(C5CC5)c4)c3c2)CCN(CC(=O)N2CC=C(c3ncc(-c4ncccn4)s3)CC2)C1", "note": "[Example 777]", "IC50": "0.16 to 18 nM"}
{"smiles": "CS(=O)(=O)[C@@]1(C(=O)Nc2ccc3[nH]nc(-c4ccnc(C5CC5)c4)c3c2)CCN(CC(=O)N2CC=C(c3ccc(-c4ncccn4)cc3)CC2)C1", "note": "[Example 634]", "IC50": "0.16 to 18 nM"}
{"smiles": "CS(=O)(=O)[C@@]1(C(=O)Nc2ccc3[nH]nc(-c4ccnc(C5CC5)c4)c3c2)CCN(CC(=O)N2CCC(c3ccc(-c4ncccn4)cc3)CC2)C1", "note": "[Example 635]", "IC50": "0.16 to 18 nM"}
{"smiles": "CO[C@@]1(C(=O)Nc2ccc3[nH]nc(-c4ccc(F)cc4)c3c2)CCN(CC(=O)N2CC=C(c3ccc(-c4ncc(F)cn4)c(F)c3)CC2)C1", "note": "[Example 661]", "IC50": "0.16 to 18 nM"}
{"smiles": "CNC(=O)c1n[nH]c2ccc(NC(=O)[C@@H]3CCN(CC(=O)N4CCC(c5ccc(-c6ncccn6)cc5)CC4)C3)cc12", "note": "[Example 176]", "IC50": "0.16 to 18 nM"}
{"smiles": "COc1cc(C2=CCN(C(=O)CN3CC[C@@](OC)(C(=O)Nc4ccc5[nH]nc(-c6ccnc(C7CC7)c6)c5c4)C3)CC2)ccc1-c1ncccn1", "note": "[Example 673]", "IC50": "0.16 to 18 nM"}
{"smiles": "COCCOc1cc(-c2n[nH]c3ccc(NC(=O)[C@]4(OC)CCN(CC(=O)N5CC=C(c6ccc(-c7ncccn7)cc6)CC5)C4)cc23)ccc1F", "note": "[Example 741]", "IC50": "0.16 to 18 nM"}
{"smiles": "COCC1(C(=O)Nc2ccc3[nH]nc(-c4ccncc4)c3c2)CCN(CC(=O)N2CCN(c3ccc(-c4ncccn4)cn3)C[C@H]2C)C1", "note": "(stereo partly shown) [Example 304]", "IC50": "0.16 to 18 nM"}
{"smiles": "Cc1cnc(-c2ccc(N3CCN(C(=O)CN4CCC(C(=O)Nc5ccc6[nH]nc(-c7ccc(F)cc7)c6c5)C4)[C@H](C)C3)cc2)nc1", "note": "(stereo partly shown) [Example 120]", "IC50": "0.16 to 18 nM"}
{"smiles": "CO[C@@]1(C(=O)Nc2ccc3[nH]nc(-c4ccnc(C(F)(F)F)c4)c3c2)CCN(CC(=O)N2CCC(c3ccc(-c4ncccn4)cc3)CC2)C1", "note": "[Example 788]", "IC50": "0.16 to 18 nM"}
{"smiles": "CNC(=O)c1n[nH]c2ccc(NC(=O)[C@@H]3CCN(CC(=O)N4C[C@@H]5C[C@H]4CN5c4ccc(-c5ncccn5)cc4)C3)cc12", "note": "[Example 152]", "IC50": "0.16 to 18 nM"}
{"smiles": "CS[C@@]1(C(=O)Nc2ccc3[nH]nc(-c4ccnc(C5CC5)c4)c3c2)CCN(CC(=O)N2CC=C(c3ccc(-c4ncccn4)cc3)CC2)C1", "note": "[Example 639]", "IC50": "0.16 to 18 nM"}
{"smiles": "CCCC1(C(=O)Nc2ccc3[nH]nc(-c4ccncc4)c3c2)CCN(CC(=O)N2CCN(c3ccc(-c4ncccn4)cc3)CC2)C1", "note": "(stereo not shown) [Example 290]", "IC50": "0.16 to 18 nM"}
{"smiles": "C=CCC1(C(=O)Nc2ccc3[nH]nc(-c4ccncc4)c3c2)CCN(CC(=O)N2CCN(c3ccc(-c4ncccn4)cc3)CC2)C1", "note": "(stereo not shown) [Example 289]", "IC50": "0.16 to 18 nM"}
{"smiles": "CCc1cc(-c2n[nH]c3ccc(NC(=O)[C@]4(OC)CCN(CC(=O)N5CC=C(c6nccs6)CC5)C4)cc23)ccn1", "note": "[Example 802]", "IC50": "0.16 to 18 nM"}
{"smiles": "COCCOc1ccc(-c2n[nH]c3ccc(NC(=O)[C@]4(OC)CCN(CC(=O)N5CCC(c6ccc(-c7ncccn7)cc6)CC5)C4)cc23)cc1", "note": "[Example 764]", "IC50": "0.16 to 18 nM"}
{"smiles": "CO[C@@]1(C(=O)Nc2ccc3[nH]nc(-c4ccc(F)c(OCCO)c4)c3c2)CCN(CC(=O)N2CC=C(c3ccc(-c4ncccn4)cc3)CC2)C1", "note": "[Example 755]", "IC50": "0.16 to 18 nM"}
{"smiles": "CO[C@@]1(C(=O)Nc2ccc3[nH]nc(-c4ccnc(C)c4)c3c2)CCN(CC(=O)N2CCC(c3ccc(-c4ncccn4)cc3)CC2)C1", "note": "[Example 789]", "IC50": "0.16 to 18 nM"}
{"smiles": "CS[C@@]1(C(=O)Nc2ccc3[nH]nc(-c4ccnc(C5CC5)c4)c3c2)CCN(CC(=O)N2CC=C(c3ccc(-c4ncccn4)cc3F)CC2)C1", "note": "[Example 651]", "IC50": "0.16 to 18 nM"}
{"system": "not listed separately", "test": "Cassette Accelerating Rapid Rat Screen (CARRS), AUC during the first 6 hours", "assay_type": "in vivo, Male Sprague-Dawley rats", "conditions": "male, Sprague-Dawley, plasma, 10 mg/kg, PO, AUC during the first 6 hours (AUC6hr)", "method": "The AUC (Area Under the Concentration-Time Curve During the First 6 Hours (AUC6hr) in Table 30 Below was Determined Using the Protocol of Cassette Accelerating Rapid Rat Screen (CARRS)\nAnimal Dosing and Sample Collection\nMale Sprague-Dawley rats (Charles River, Co.) were pre-cannulated (femoral artery) in order to facilitate precise blood sampling times, and to reduce the stress on the animals caused by serial bleedings. Following an overnight fast, two rats were dosed orally with one compound at a dose of 10 mg/kg in a 5-mL/kg dose volume. Blood was collected into heparin-containing tubes serially from each animal at 0.5, 1, 2, 3, 4 and 6 h post-dosing and centrifuged to generate plasma. Approximately 100 μL of plasma were collected at the individual time points. The plasma samples were stored at −20° C. until analysis.\nPlasma Sample and Standard Curve Preparation\nA set of 12 rat plasma samples was generated for each NCE (i.e. 6 timepoints and n=2 rats). These 12 samples were pooled across the two rats at each timepoint to provide 6 pooled samples (one sample per time point) for each NCE. The pooled samples were assayed as cassettes of six (36 samples total) to provide data on the six compounds. The 50-μL aliquots of the 36 plasma samples were placed into individual wells of a 96-well plate. An additional compound (often a structural analog of the test compounds) was selected as the internal standard. A mini-calibration curve was prepared (three points plus a zero) for each compound assayed. Drug-free rat plasma was measured into 1-mL aliquots and each aliquot was spiked with known concentrations of the compounds to generate standards of the desired concentrations. The concentrations of the standards were chosen to bracket the expected concentration of the pooled samples based on historical data from previous studies on other compounds. For this work, the standards were set to contain concentrations of 25, 250 and 2500 ng NCE/mL plasma. The plasma standards were precipitated in duplicate along with the samples. Protein precipitation occurred after addition of 150 μL of acetonitrile containing the internal standard at a concentration of 1 ng/mL into each sample well using the Tomtec Quadra 96 system. The precipitated samples and standards were vortexed and centrifuged in the 96-well plate. Approximately 50-100 μL of the supernatant were removed and placed into a fresh 96-well plate using the Tomtec Quadra 96 system. A volume of 5-10 μL of the supernatant was used for analysis by HPLC-MS/MS. The mini-standard curve was run in duplicate, once before and once after the samples. Thus, a total of 14 study samples plus standards were analyzed per compound. In addition, solvent blanks were injected before and after each set of 14 and after the highest calibration standard for each compound; therefore, a total of 103 injections were made into each HPLC system for each set of six compounds. Multiple solvent blank injections could be made from a single well. Twelve solvent blank wells were designated in each 96-well plate. Thus, one batch (cassette) of six NCEs was prepared and assayed using one 96-well plate format.\nAll the compounds were analyzed using selected reaction monitoring (SRM) methods with LC/MS/MS instruments. Once the method development had been completed, the assay was quickly set up using a standard injection sequence template for the CARRS assay.", "units": {"AUC": "µM·h"}}
{"smiles": "COC[C@@]1(C(=O)Nc2ccc3[nH]nc(-c4ccnc(C5CC5)c4)c3c2)CCN(CC(=O)N2CC=C(c3ccc(-c4ncccn4)cc3)CC2)C1", "note": "[Example 336, 3-Methoxymethyl-1-{2-[4-(4-pyrimidin-2-yl-phenyl)-3,6-dihydro-2H-pyridin-1-yl]-acetyl}-pyrrolidine-3-carboxylic acid [3-(2-cyclopropyl-pyridin-4-yl)-1H-indazol-5-yl]-amide]", "AUC": 7.22}
